Data on two compounds can be found in patent US20210154190A1, “SHP2 INHIBITOR COMPOSITIONS AND METHODS FOR TREATING CANCER” (Revolution Medicines, Inc., priority 2018, published 2021).

Substitutions are numbered along the chain they refer to. “And” between values parts separate entries of the source, which are not always exact repeats. Equal values may be shown once. Read-outs that look alike come from different tables or passages of the source.

Common to all, as to assay type: biochemical
One experiment addresses T1, human SHP2-FL E76K (Homo sapiens, UniProt Q06124, E76K).
T1 sequence (Q06124 1-593 E76K): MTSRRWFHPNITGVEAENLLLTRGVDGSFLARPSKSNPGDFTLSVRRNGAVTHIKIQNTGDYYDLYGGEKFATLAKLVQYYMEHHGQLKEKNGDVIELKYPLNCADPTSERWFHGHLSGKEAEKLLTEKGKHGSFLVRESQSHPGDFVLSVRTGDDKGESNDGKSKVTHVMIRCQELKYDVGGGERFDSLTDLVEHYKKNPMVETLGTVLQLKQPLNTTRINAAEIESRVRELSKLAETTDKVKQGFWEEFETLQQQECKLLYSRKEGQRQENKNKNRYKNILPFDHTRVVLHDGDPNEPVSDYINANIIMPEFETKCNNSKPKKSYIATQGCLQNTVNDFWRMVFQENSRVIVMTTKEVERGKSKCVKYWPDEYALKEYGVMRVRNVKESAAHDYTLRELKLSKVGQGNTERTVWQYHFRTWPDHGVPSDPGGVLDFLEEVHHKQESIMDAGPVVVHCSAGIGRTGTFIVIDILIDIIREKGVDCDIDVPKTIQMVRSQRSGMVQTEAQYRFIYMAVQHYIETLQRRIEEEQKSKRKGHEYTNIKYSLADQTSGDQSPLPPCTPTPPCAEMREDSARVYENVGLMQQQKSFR
Description: SHP2 allosteric inhibition assay (DiFMUP), E76K. Conditions: for IC50: SHP2 E76K. The source says:
(§1) Full-length SHP2 is allosterically activated through binding of bis-tyrosyl-phorphorylated peptides to its Src Homology 2 (SH2) domains. The latter activation step leads to the release of the auto-inhibitory interface of SHP2, which in turn renders the SHP2 protein tyrosine phosphatase (PTP) active and available for substrate recognition and reaction catalysis. The catalytic activity of SHP2 was monitored using the surrogate substrate DiFMUP in a prompt fluorescence assay format.
Diluted inhibitor (5 μL) was mixed with activated enzyme (25 μl) and incubated for 30 minutes at room temperature. […] 50 μl stop solution (0.1 mM sodium pervanadate) was added to each well, the plate was shaken briefly to mix, and read in endpoint mode on a SpectraMax M5 plate reader (Molecular Devices) using excitation and emission wavelengths of 340 nm and 450 nm. Data was imported into GraphPad Prism. Plots of fluorescence intensity vs. log Molar [compound] were created and modeled with a 3-parameter sigmoidal concentration response equation in order to estimate IC50.
(§2) Reactions were then allowed to proceed for 30 minutes and stopped by the addition of a phosphatase inhibitor, sodium pervanadate. De-phosphorylation of DiFMUP results in production of a fluorescent product. Product fluorescence was determined and plotted as a function of compound concentration in order to determine the IC50 for each compound on each mutant using a four parameter sigmoidal dose response function in Prism (GraphPad).
(§3) NsCs mimics the role of the cytosolic domain of a protein tyrosine kinase in this model system.

For the next experiment, the target named is T2, human SHP2-FL P491S (Homo sapiens, UniProt Q06124, P491S).
T2 sequence (Q06124 1-593 P491S): T1 sequence (Q06124 1-593 E76K) with K76E, P491S
Description: SHP2 allosteric inhibition assay (DiFMUP), P491S. The protocol: as §1
(§4) […] […] 50 μl stop solution (0.1 mM sodium pervanadate) was added to each well, the plate was shaken briefly to mix, and read in endpoint mode on a SpectraMax M5 plate reader (Molecular Devices) using excitation and emission wavelengths of 340 nm and 450 nm. Data was imported into GraphPad Prism. Plots of fluorescence intensity vs. log Molar [compound] were created and modeled with a 3-parameter sigmoidal concentration response equation in order to estimate IC50.
as §2, §3

A further experiment concerns the target T3, human SHP2-FL F285S (Homo sapiens, UniProt Q06124, F285S).
T3 sequence (Q06124 1-593 F285S): T1 sequence (Q06124 1-593 E76K) with K76E, F285S
Description: SHP2 allosteric inhibition assay (DiFMUP), F285S. Here is the method:
as §1, §4, §2, §3

On to `Nc1nc(N2CCC3(CCC[C@H]3N)CC2)cnc1Sc1ccnc(Cl)c1Cl` [Compound 1], for which the IC50 at human SHP2-FL E76K (0.5 μM NsCs peptide (Activated), read-out: IC50) is > 10000 nM and 13100 nM and 10400 nM; on human SHP2-FL E76K (No Peptide Control (Non-Activated), read-out: pIC50 (converted)), 53.7 nM and 58.9 nM and 50.1 nM; on human SHP2-FL P491S (IC50 (nM), SHP2 P491S 0.5 μM NsCs peptide (Activated), human SHP2-FL P491S, 0.5 μM NsCs peptide (activated)), > 10000 nM and 10600 nM and 7670 nM; on human SHP2-FL P491S (human SHP2-FL P491S alone, no peptide (non-activated), read-out: IC50 (nM), SHP2 P491S No Peptide Control (Non-Activated)), 258 nM and 274 nM and 253 nM and 282 nM; at human SHP2-FL P491S (human SHP2-FL P491S alone, no peptide (non-activated), read-out: pIC50, SHP2 P491S No Peptide Control (Non-Activated) (converted)) it was 257 nM and 275 nM and 251 nM and 282 nM; on human SHP2-FL P491S (pIC50, SHP2 P491S 0.5 μM NsCs peptide (Activated), human SHP2-FL P491S, 0.5 μM NsCs peptide (activated)), > 10000 nM and 10700 nM and 7590 nM. Also, the IC50 on human SHP2-FL F285S (IC50 (nM), SHP2 F285S 0.5 μM NsCs peptide (Activated), human SHP2-FL F285S, 0.5 μM NsCs peptide (activated)) is 3.76 nM and 9.08 nM and 8.38 nM and 15.1 nM; on human SHP2-FL F285S (human SHP2-FL F285S alone, no peptide (non-activated), read-out: IC50 (nM), SHP2 F285S No Peptide Control (Non-Activated)), 1.57 nM and 1.55 nM and 1.04 nM and 1.19 nM; on human SHP2-FL F285S (human SHP2-FL F285S alone, no peptide (non-activated), read-out: pIC50, SHP2 F285S No Peptide Control (Non-Activated) (converted)), 1.55 nM and 1.05 nM and 1.2 nM; on human SHP2-FL F285S (pIC50, SHP2 F285S 0.5 μM NsCs peptide (Activated), human SHP2-FL F285S, 0.5 μM NsCs peptide (activated)), 3.72 nM and 9.12 nM and 8.32 nM and 15.1 nM.

Take `Cc1nc(N2CCC3(CC2)CO[C@@H](C)[C@H]3N)c(CO)nc1-c1cccc(Cl)c1Cl` [Compound B]: the Biochemical sensitivity entry on human SHP2-FL E76K (Variant E76K) is “no (Sensitive if IC50 < 2000 nM)”; on human SHP2-FL P491S (Variant P491S), “no (Sensitive if IC50 < 2000 nM)”; at human SHP2-FL F285S (Variant F285S), “yes (Sensitive if IC50 < 2000 nM)”.
